This passage reports IC50 and inhibition results from patent US9682953B2, “Amide compounds, compositions and applications thereof” (Advinus Therapeutics Limited, priority 2011, dated 2017).

Read-outs that look alike come from different tables or passages of the source.

Assay [1] addresses human Fatty Acid Amide Hydrolase (FAAH) (Homo sapiens (Human), UniProt O00519). As to the kind of experiment: biochemical. The conditions noted are these: read-out: hFAAH IC50.
Assay [2] has as its target rat Fatty Acid Amide Hydrolase (FAAH) (Rattus norvegicus (Rat), UniProt P97612). As to the kind of experiment: FAAH in vitro fluorescence assay (AAMCA hydrolysis), rat enzyme. It is filed as biochemical. Particulars: for inhibition at 0.1 µM: read-out: rFAAH % inhibition at 100 nM, 100 nM (tier I). How it is done: Material and Reagents: All reagents were purchased from Sigma-Aldrich unless specified. […] Chaperone protein groEL-groES in pGRO7 plasmid (Takara Bio Inc, Japan) was co-expressed with Fatty Acid Amide Hydrolase (FAAH) to improve solubility of the protein expressed in E coli. […] Briefly, the bacterial cultures in Luria Broth (2 L) were induced with arabinose (2 mM) and Isopropyl (β-D-1-thiogalactopyranoside, IPTG (1 mM), for 20 h at room temperature. The cultures were centrifuged at 1200×g for 10 min and the cell pellet was resuspended in 100 mL buffer containing of 20 mM NaPi (pH 7.4), 100 mM NaCl, Benzonase (500u), Aprotinin (1 μg/mL) and Leupeptin (1 μg/mL). Cells were lyzed by sonication (Amp 20%, Pulse 15 s×15, on ice) and the cell debris removed by centrifugation at 5000×g for 20 min. The supernatant was enriched via ultracentrifugation at 100,000×g for 1 h and the cell pellet was resuspended in 16 mL buffer containing 20 mM NaPi (pH 7.8), 500 mM NaCl, 1% Triton X-100. The resuspended cell extract was subjected to ultra-centrifugation at 100,000×g for 1 h and the enriched supernatant was used in the in vitro assay. All protein extraction steps were carried out on ice or at 4° C.
The assay was carried out in 200 μL volume in a 96-well black polystyrene plate (Greiner Bio-one, Germany). Each reaction consisted of human Fatty Acid Amide Hydrolase (FAAH) protein and 10 μM AAMCA in assay buffer containing 50 mM HEPES, 1 mM EDTA and 0.1% BSA, pH 7.4. The reaction was incubated with 2 μL of varying concentrations of inhibitor in DMSO (final concentration of DMSO 1%) with shaking for 1 min and monitored for increase in fluorescence in kinetic mode for 50 min. […] Rate of reaction as a function of the concentration of the inhibitor was used to determine the IC50 of the inhibitors. Data was analyzed using GraphPad Prism 5 (GraphPad Software Inc., San Diego, Calif.). The activity of the compounds for rat Fatty Acid Amide Hydrolase (FAAH) was evaluated as described above with rat Fatty Acid Amide Hydrolase (FAAH) protein and 10 μM AAMCA substrate.

Sequence of human Fatty Acid Amide Hydrolase (FAAH) (O00519 30-579): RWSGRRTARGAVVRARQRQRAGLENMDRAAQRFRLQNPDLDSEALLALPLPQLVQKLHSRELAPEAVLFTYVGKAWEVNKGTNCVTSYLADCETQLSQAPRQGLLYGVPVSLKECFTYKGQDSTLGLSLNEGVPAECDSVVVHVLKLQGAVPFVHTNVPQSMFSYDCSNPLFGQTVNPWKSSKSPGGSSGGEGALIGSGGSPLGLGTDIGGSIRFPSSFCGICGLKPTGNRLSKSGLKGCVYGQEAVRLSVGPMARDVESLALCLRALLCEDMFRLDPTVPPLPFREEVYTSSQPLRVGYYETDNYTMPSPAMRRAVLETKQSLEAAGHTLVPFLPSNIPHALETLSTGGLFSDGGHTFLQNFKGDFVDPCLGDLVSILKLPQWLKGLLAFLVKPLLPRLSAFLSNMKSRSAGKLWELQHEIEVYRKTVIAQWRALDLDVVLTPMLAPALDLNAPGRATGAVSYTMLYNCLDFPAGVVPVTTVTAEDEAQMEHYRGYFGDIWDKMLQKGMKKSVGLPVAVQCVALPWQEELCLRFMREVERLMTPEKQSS
Sequence of rat Fatty Acid Amide Hydrolase (FAAH) (P97612 30-579): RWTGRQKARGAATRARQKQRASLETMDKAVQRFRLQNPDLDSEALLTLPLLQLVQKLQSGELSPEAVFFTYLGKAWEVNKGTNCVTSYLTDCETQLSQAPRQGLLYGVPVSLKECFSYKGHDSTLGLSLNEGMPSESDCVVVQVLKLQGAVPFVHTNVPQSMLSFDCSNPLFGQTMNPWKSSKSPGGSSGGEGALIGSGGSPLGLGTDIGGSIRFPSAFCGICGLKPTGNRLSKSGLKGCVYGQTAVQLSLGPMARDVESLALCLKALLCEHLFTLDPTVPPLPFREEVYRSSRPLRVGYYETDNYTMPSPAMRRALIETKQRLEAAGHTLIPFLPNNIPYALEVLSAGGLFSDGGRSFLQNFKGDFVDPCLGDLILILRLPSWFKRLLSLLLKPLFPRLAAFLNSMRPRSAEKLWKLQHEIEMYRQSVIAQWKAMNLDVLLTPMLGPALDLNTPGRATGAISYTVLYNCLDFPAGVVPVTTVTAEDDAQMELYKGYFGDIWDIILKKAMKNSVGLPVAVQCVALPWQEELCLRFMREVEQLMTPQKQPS

As a reminder, the IC50 is the point on the concentration scale where inhibition reaches its midpoint. Take `O=C(NC1CCC(=Cc2cccc(Oc3ccc(C(F)(F)F)cn3)c2)CC1)c1cccnn1` (single isomer, unassigned; (+)) [Example 20.A-15, (+)-N-[4-[[3-[[5-(trifluoromethyl)-2-pyridyl]oxy]phenyl]methylene]cyclohexyl]pyridazine-3-carboxamide]: the IC50 in assay [1] was determined as 431 nM; in assay [2] (rat FAAH, read-out: rFAAH IC50) it was 408 nM.

A word on the inhibition: it is the share of the control response that was lost under treatment. In the case of `O=C(NC1CCC(=Cc2cccc(Oc3ccc(C(F)(F)F)cn3)c2)CC1)c1c[nH]c2ccccc12` (single isomer, unassigned; (+)) [Example 20.A-17, (+)-N-[4-[[3-[[5-(trifluoromethyl)-2-pyridyl]oxy]phenyl]methylene]cyclohexyl]-1H-indole-3-carboxamide], the IC50 in assay [1] was 155 nM. Also, the inhibition at 10 µM in assay [2] (read-out: rFAAH % inhibition at 10 uM, rat FAAH, 10 uM) amounted to 90%.

As to `Nc1ccc(C(=O)NC2CCC(=Cc3cccc(Oc4ccc(C(F)(F)F)cn4)c3)CC2)cn1` (single isomer, unassigned; (-)) [Example 20.A-4, (−)-6-Amino-N-[4-[[3-[[5-(trifluoromethyl)-2-pyridyl]oxy]phenyl]methylene]cyclohexyl]pyridine-3-carboxamide], the IC50 came to 1 nM in assay [1] and 11 nM in assay [2] (rat FAAH, read-out: rFAAH IC50).

For `Cc1cc(C(=O)NC2CCC(=Cc3cccc(Oc4ccc(C(F)(F)F)cn4)c3)CC2)cnc1N` (single isomer, unassigned; (-)) [Example 20.A-6, (−)-6-Amino-5-methyl-N-[4-[[3-[[5-(trifluoromethyl)-2-pyridyl]oxy]phenyl]methylene]cyclohexyl]pyridine-3-carboxamide], the IC50 in assay [1] (human FAAH) turned out to be 1 nM; in assay [2] (rat FAAH, read-out: rFAAH IC50), 10 nM.

`O=C(NC1CCC(=Cc2cccc(Oc3ccc(C(F)(F)F)cn3)c2)CC1)c1c[nH]nc1C(F)(F)F` (single isomer, unassigned; (-)) [Example 20.A-8, (−)-3-(Trifluoromethyl)-N-[4-[[3-[[5-(trifluoromethyl)-2-pyridyl]oxy]phenyl]methylene]cyclohexyl]-1H-pyrazole-4-carboxamide]: the 50% inhibitory concentration (IC50) in assay [1] was determined as 1 nM; in assay [2] (rat FAAH, read-out: rFAAH IC50), 30 nM.

In the case of `Nc1ncc(C(=O)NC2CCC(=Cc3cccc(Oc4ccc(C(F)(F)F)cn4)c3)CC2)cn1` (single isomer, unassigned; (-)) [Example 20.A-10], the IC50 was found to be 0.6 nM in assay [1] and 7 nM in assay [2] (rat FAAH, read-out: rFAAH IC50).

Regarding `O=C(NC1CCC(=Cc2cccc(Oc3ccc(C(F)(F)F)cn3)c2)CC1)c1cn[nH]c1` (single isomer, unassigned; (-)) [Example 20.A-12, (−)-N-[4-[[3-[[5-(trifluoromethyl)-2-pyridyl]oxy]phenyl]methylene]cyclohexyl]-1H-pyrazole-4-carboxamide], the IC50 in assay [1] (human FAAH) came to 1.7 nM; in assay [2] (rat FAAH, read-out: rFAAH IC50), 35.5 nM.

Take `O=C(NC1CCC(=Cc2cccc(Oc3ccc(C(F)(F)F)cn3)c2)CC1)c1cnc2[nH]ccc2c1` (single isomer, unassigned; (-)) [Example 20.A-14, (−)-N-[4-[[3-[[5-(trifluoromethyl)-2-pyridyl]oxy]phenyl]methylene]cyclohexyl]-1H-pyrrolo[2,3-b]pyridine-5-carboxamide]: the IC50 in assay [1] came to 1 nM; in assay [2] (rat FAAH, read-out: rFAAH IC50) it was 8.6 nM.

On to `O=C(NC1CCC(=Cc2cccc(Oc3ccc(C(F)(F)F)cn3)c2)CC1)c1cccnn1` (single isomer, unassigned; (-)) [Example 20.A-16, (−)-N-[4-[[3-[[5-(trifluoromethyl)-2-pyridyl]oxy]phenyl]methylene]cyclohexyl]pyridazine-3-carboxamide], for which the IC50 in assay [1] worked out at 4 nM; in assay [2] (rat FAAH, read-out: rFAAH IC50) it was 115 nM.

Regarding `O=C(NC1CCC(=Cc2cccc(Oc3ccc(C(F)(F)F)cn3)c2)CC1)c1c[nH]c2ccccc12` (single isomer, unassigned; (-)) [Example 20.A-18, (−)-N-[4-[[3-[[5-(trifluoromethyl)-2-pyridyl]oxy]phenyl]methylene]cyclohexyl]-1H-indole-3-carboxamide], the IC50 was 4 nM in assay [1] (human FAAH) and 35 nM in assay [2].

`O=C(Nc1ncc(Cl)s1)C1CCC(=Cc2cccc(Oc3ccc(C(F)(F)F)cn3)c2)CC1` (stereo not shown) [Example 1.1, N-(5-Chlorothiazol-2-yl)-4-[[3-[[5-(trifluoromethyl)-2-pyridyl]oxy]phenyl]methylene]cyclohexanecarboxamide]: the IC50 in assay [1] (human FAAH) amounted to 16 nM; in assay [2] (rat FAAH, read-out: rFAAH IC50) it was 60 nM.

For the compound `O=C(Nc1cnccn1)C1CCC(=Cc2cccc(Oc3ccc(C(F)(F)F)cn3)c2)CC1` (stereo not shown) [Example 1.A-3, N-Pyrazin-2-yl-4-[[3-[[5-(trifluoromethyl)-2-pyridyl]oxy]phenyl]methylene]cyclohexanecarboxamide], the IC50 in assay [1] (human FAAH) was determined as 9 nM; in assay [2] (rat FAAH, read-out: rFAAH IC50), 44 nM.

With `Cc1ccc(C(=O)NC2CCC(=Cc3cccc(Oc4ccc(C(F)(F)F)cn4)c3)CC2)cn1` (stereo not shown) [Example 2.2, 6-Methyl-N-[4-[[3-[[5-(trifluoromethyl)-2-pyridyl]oxy]phenyl]-methylene]cyclohexyl]pyridine-3-carboxamide], the IC50 turned out to be 5 nM in assay [1] and 28 nM in assay [2] (rat FAAH, read-out: rFAAH IC50).

Regarding `O=C(NC1CCC(=Cc2cccc(Oc3ccc(C(F)(F)F)cn3)c2)CC1)c1cc[nH]n1` (stereo not shown) [Example 2.A-1, N-[4-[[3-[[5-(Trifluoromethyl)-2-pyridyl]oxy]phenyl]methylene]cyclohexyl]-1H-pyrazole-3-carboxamide], the IC50 in assay [1] (human FAAH) was determined as 10 nM; in assay [2] (rat FAAH, read-out: rFAAH IC50), 418 nM.

As for `O=C(NC1CCC(=Cc2cccc(Oc3ccc(C(F)(F)F)cn3)c2)CC1)c1ccccn1` (stereo not shown) [Example 2.A-4, N-[4-[[3-[[5-(Trifluoromethyl)-2-pyridyl]oxy]phenyl]methylene]cyclohexyl]pyridine-2-carboxamide], the 50% inhibitory concentration (IC50) in assay [1] (human FAAH) amounted to 508 nM. In addition, the inhibition at 30 µM in assay [2] (read-out: rFAAH % inhibition at 30 uM, rat FAAH, 30 uM) amounted to 70%.

Regarding `O=C(NC1CCC(=Cc2cccc(Oc3ccc(C(F)(F)F)cn3)c2)CC1)c1cnccn1` (stereo not shown) [Example 2.A-5, N-[4-[[3-[[5-(Trifluoromethyl)-2-pyridyl]oxy]phenyl]methylene]cyclohexyl]pyrazine-2-carboxamide], the IC50 in assay [1] (human FAAH) was determined as 9 nM. Further, the inhibition at 0.1 µM in assay [2] (rat FAAH) is 27%.

On to `O=C(NC1CCC(=Cc2cccc(Oc3ccc(C(F)(F)F)cn3)c2)CC1)c1ccc(C(F)(F)F)nc1` (stereo not shown) [Example 2.A-6, 6-(Trifluoromethyl)-N-[4-[[3-[[5-(trifluoromethyl)-2-pyridyl]oxy]phenyl]methylene]cyclohexyl]pyridine-3-carboxamide], for which the IC50 in assay [1] (human FAAH) was determined as 102 nM. Moreover, in assay [2] (rat FAAH), the inhibition at 0.1 µM is 37%.

As to `O=C(NC1CCC(=Cc2cccc(Oc3ccc(C(F)(F)F)cn3)c2)CC1)c1ccncc1` (stereo not shown) [Example 2.A-8, N-[4-[[3-[[5-(Trifluoromethyl)-2-pyridyl]oxy]phenyl]methylene]cyclohexyl]pyridine-4-carboxamide], in assay [1] (human FAAH), the IC50 was 14 nM. Besides, in assay [2] (rat FAAH), the inhibition at 0.1 µM came out at 14%.

Turning to `O=C(NC1CCC(=Cc2cccc(Oc3ccc(C(F)(F)F)cn3)c2)CC1)c1cn[nH]c1` (stereo not shown) [Example 2.A-9, N-[4-[[3-[[5-(Trifluoromethyl)-2-pyridyl]oxy]phenyl]methylene]cyclohexyl]-1H-pyrazole-4-carboxamide], the IC50 in assay [1] (human FAAH) turned out to be 2 nM; in assay [2] (rat FAAH, read-out: rFAAH IC50), 53 nM.

For the compound `O=C(NC1CCC(=Cc2cccc(Oc3ccc(C(F)(F)F)cn3)c2)CC1)c1cccnn1` (stereo not shown) [Example 2.A-11, N-[4-[[3-[[5-(Trifluoromethyl)-2-pyridyl]oxy]phenyl]methylene]cyclohexyl]pyridazine-3-carboxamide], the IC50 amounted to 11 nM in assay [1] and 194 nM in assay [2] (rat FAAH, read-out: rFAAH IC50).
